Source: article PMC6271891, “Exploration of Piperidinols as Potential Antitubercular Agents” (Molecules, 2014)
Converted amounts (≈) assume the structure as drawn. “And” between values parts separate entries of the source, which are not always exact repeats. Equal values may be shown once. Read-outs that look alike come from different tables or passages of the source.

Experiments:
[1] = system: mycobacteria; set-up: method as in PMID 23285185; conditions: cited from earlier work
[2] = target: T1, MMNAT (Mycobacterium marinum, UniProt B2HIZ6); experiment: NAT inhibition assay (CoA formation), MMNAT; type: biochemical; conditions: for inhibition at 50 µM: read-out: MMNAT % Inhibition
T1 sequence (B2HIZ6 entry or part of it): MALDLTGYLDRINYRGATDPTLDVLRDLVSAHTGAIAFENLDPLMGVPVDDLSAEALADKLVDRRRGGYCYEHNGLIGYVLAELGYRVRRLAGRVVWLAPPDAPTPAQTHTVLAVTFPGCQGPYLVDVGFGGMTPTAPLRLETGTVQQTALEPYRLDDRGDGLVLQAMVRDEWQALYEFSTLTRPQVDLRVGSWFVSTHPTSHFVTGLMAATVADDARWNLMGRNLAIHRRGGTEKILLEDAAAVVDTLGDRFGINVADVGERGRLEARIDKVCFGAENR
Experimental: (§1) The NAT enzymes from M. smegmatis, S. typhimurium, P. aeruginosa, M. marinum, M. tuberculosis, hamster NAT2 [45] and human NAT1 [46] were produced as recombinant proteins, purified as previously described and stored at −80 in 20 mM Tris-HCl pH 8 containing 1 mM dithiothreitol and 5% glycerol and thawed and used within 1–5 h.
(§2) An assay for measuring the formation of CoA [23] was modified and used to determine the activity of the enzyme in the presence of potential inhibitors exactly as described previously. Irreversible inhibition, progressive with time was measured for the piperidinol inhibitors by the protocol described in [13] and the values of the apparent first order rate constant (kobs) were determined using the Kitz and Wilson model. Adduct formation was determined as previously described by mass spectroscopy analysis.

[3] = system: M. bovis BCG; experiment: microbe, parasite or virus in culture; type: cell-based; conditions: Mycobacterium tuberculosis variant bovis BCG, 336 h, read-out: MIC M. bovis BCG
[4] = target: T1, MMNAT; experiment: Time-dependent (irreversible) inactivation of MMNAT by the piperidinols; type: biochemical; conditions: for kobs: 24 °C, mean ± S.D. of triplicate; for t1/2, apparent inactivation half-life: t1/2 = 0.693/kobs
Experimental: as §2
Figure S1. The time-dependent inhibition of the MMNAT by the piperidinols (A) compounds 1, 3, 4, 6 at 11.9 μM concentration (B) 5, 7 at 5.9 μM concentration and (C) 8, […]
Semi-logarithmic plots showing the time-dependent inactivation of MMNAT by (A) compounds 1, 3, 4, 6 at 11.9 μM concentration (B) 5, 7 at 5.9 μM concentration and (C) 8, 9 (11.9 μM), 10 (23.8 μM) and 11 (5.9 μM). The enzyme activity was measured using the protocol described in [1]. The results are presented as the mean ± S.D. of triplicate measurements. The error bars are within the symbols.
The residual activity is shown as a percentage of a control. The data were fitted against the incubation time using the Semilog line (X is linear, Y is Log) module of GraphPad Prism 5.0. The slope of each line is equivalent to (−kobs/2.303) at each inhibitor concentration. […]

[5] = system: M. tuberculosis strain H37Rv; experiment: Mycobacterial growth inhibition, spot culture on solid medium, M. tuberculosis H37Rv; type: cell-based; conditions: Mycobacterium tuberculosis, 336 h, read-out: MIC M. tuberculosis
[6] = system: RAW 264.7 cells; conditions: up to 50 μg/mL inhibitor concentration
[7] = target: T2, TBNAT (Mycobacterium tuberculosis, UniProt P9WJI5); experiment: NAT inhibition assay (CoA formation), TBNAT; type: biochemical, M. tuberculosis; conditions: for inhibition at 50 µM: read-out: TBNAT % Inhibition; for IC50: inhibitor 0–250 μM
T2 construct: made in house
T2 sequence (P9WJI5 whole entry): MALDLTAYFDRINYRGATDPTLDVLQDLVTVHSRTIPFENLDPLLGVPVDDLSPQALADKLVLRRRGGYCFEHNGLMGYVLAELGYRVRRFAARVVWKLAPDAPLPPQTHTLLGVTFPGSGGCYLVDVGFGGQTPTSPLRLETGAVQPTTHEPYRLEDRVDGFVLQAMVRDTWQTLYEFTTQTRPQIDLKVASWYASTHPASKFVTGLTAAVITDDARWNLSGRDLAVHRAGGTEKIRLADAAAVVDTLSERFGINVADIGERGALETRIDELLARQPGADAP
Experimental: as §1, §2

[8] = system: M. bovis BCG str. Pasteur (ATCC 35734); experiment: microbe, parasite or virus in culture; type: cell-based; conditions: Mycobacterium tuberculosis variant bovis BCG, read-out: MIC against M. bovis BCG
[9] = 5ASA as substrate, mean ± S.D. of triplicate, read-out: MMNAT IC50 5ASA
[10] = strain H37Rv, solid medium 7H10-OADC, no growth after 2 weeks
[11] = 50 μM inhibitor, 150 μM HLZ and 120 μM Ac-CoA, mean ± S.D. of triplicate
[12] = 150 μM HLZ and 120 μM Ac-CoA, inhibitor 0–250 μM, mean ± S.D. of triplicate, read-out: MMNAT IC50 HLZ
[13] = 150 μM HLZ and 120 μM Ac-CoA, mean ± S.D. of triplicate

SMILES | MIC (antimycobacterial) [1] | IC50 [2, 9] | MIC [3] | kobs ([4]; inhibitor 11.9 μM) | t1/2, apparent inactivation half-life ([4]; inhibitor 11.9 μM) | MIC [5, 10] | Cytotoxic effect on RAW 264.7 cells [6] | inhibition at 50 µM [2, 11] | IC50 [2, 12] | inhibition at 50 µM [7, 11] | IC50 [7, 13] | kobs ([4]; inhibitor 5.9 μM) | t1/2, apparent inactivation half-life ([4]; inhibitor 5.9 μM) | MIC ([5]; H37RV) | kobs ([4]; inhibitor 23.8 μM) | t1/2, apparent inactivation half-life ([4]; inhibitor 23.8 μM) | inhibition at 50 µM [2] | inhibition at 50 µM [7] | MIC [8]
CN1CCC(O)(c2ccccc2)C(C(=O)c2ccccc2)C1 (stereo not shown) [Compound 1] | < 5 µg/mL | 6000 ± 1000 nM | 6.3 to 12.5 µg/mL (≈ 21.3 to 42.3 µM) | 9 ± 2 10^−3 min^−1 | 81.5 min | 1 to 10 µg/mL (≈ 3.39 to 33.9 µM) | no cytotoxicity was observed |  |  |  |  |  |  |  |  |  |  |  | 
CN1CCC(O)(c2ccc(Cl)cc2)C(C(=O)c2ccc(Cl)cc2)C1 (stereo not shown) [Compound 2] |  | 1400 ± 600 nM | 6.3 to 12.5 µg/mL (≈ 17.3 to 34.3 µM) | 110 ± 2 10^−3 min^−1 | 6.3 min |  |  | 103 ± 2% | 160 ± 10 nM | 98 ± 1% | 1600 ± 100 nM |  |  |  |  |  |  |  | 
CN1CCC(O)(c2ccc(Br)cc2)C(C(=O)c2ccc(Br)cc2)C1 (stereo not shown) [Compound 3] |  | 1300 ± 400 nM | 6.3 to 12.5 µg/mL (≈ 13.9 to 27.6 µM) | 74 ± 7 10^−3 min^−1 | 9.4 min | 5 to 10 µg/mL (≈ 11 to 22.1 µM) |  | 99 ± 1% | 80 ± 10 nM | 98 ± 3% | 2900 ± 400 nM |  |  |  |  |  |  |  | 
CCN1CCC(O)(c2ccccc2)C(C(=O)c2ccccc2)C1 (stereo not shown) [Compound 4] |  | 8000 ± 1000 nM | 6.3 to 12.5 µg/mL (≈ 20.4 to 40.4 µM) | 15 ± 1 10^−3 min^−1 | 45.6 min | 5 to 10 µg/mL (≈ 16.2 to 32.3 µM) |  | 126 ± 5% | 1900 nM | 72 ± 4% | 7300 ± 300 nM |  |  |  |  |  |  |  | 
CCN1CCC(O)(c2ccc(F)cc2)C(C(=O)c2ccc(F)cc2)C1 (stereo not shown) [Compound 5] |  | 1300 ± 500 nM | 6.3 to 12.5 µg/mL (≈ 18.2 to 36.2 µM) |  |  | 5 to 10 µg/mL (≈ 14.5 to 29 µM) |  | 102 ± 3% | 500 nM | 108 ± 1% | 4400 nM | 638 ± 120 10^−3 min^−1 | 1.1 min |  |  |  |  |  | 
CCCCN1CCC(O)(c2ccccc2)C(C(=O)c2ccccc2)C1 (stereo not shown) [Compound 6] |  | 5000 ± 400 nM | 6.3 to 12.5 µg/mL (≈ 18.7 to 37 µM) | 104 ± 8 10^−3 min^−1 | 6.6 min | 1 to 5 µg/mL (≈ 2.96 to 14.8 µM) |  | 102 ± 3% | 2600 ± 1000 nM | 100 ± 3% | 6900 ± 400 nM |  |  |  |  |  |  |  | 
O=C(c1ccccc1)C1CN(C2CCCCC2)CCC1(O)c1ccccc1 (stereo not shown) [Compound 7] |  | 1700 ± 200 nM | 6.3 to 12.5 µg/mL (≈ 17.3 to 34.4 µM) |  |  |  |  |  |  |  |  | 573 ± 25 10^−3 min^−1 | 1.2 min | 1 to 5 µg/mL (≈ 2.75 to 13.8 µM) |  |  |  |  | 
O=C(c1ccccc1)C1CN(Cc2ccccc2)CCC1(O)c1ccccc1 (stereo not shown) [Compound 8] |  |  | 6.3 to 12.5 µg/mL (≈ 17 to 33.6 µM) | 10 ± 1 10^−3 min^−1 | 71.4 min | 0 to 1 µg/mL |  | 101 ± 1% | 4100 ± 400 nM | 58 ± 2% |  |  |  |  |  |  |  |  | 
O=C(c1ccccc1)C1CN(C2CCCO2)CCC1(O)c1ccccc1 (stereo not shown) [Compound 9] |  | 9000 ± 900 nM |  | 163 ± 39 10^−3 min^−1 | 4.2 min | 0 to 1 µg/mL |  | 100.8 ± 0.5% | 2500 ± 300 nM | 51 ± 3% |  |  |  |  |  |  |  |  | 
O=C(c1ccccc1)C1CN(C2CCS(=O)(=O)C2)CCC1(O)c1ccccc1 (stereo not shown) [Compound 10] |  | > 30000 nM | 3.1 to 6.3 µg/mL (≈ 7.76 to 15.8 µM) |  |  |  |  | 99 ± 0.7% | 13000 ± 1000 nM | 47 ± 2% |  |  |  |  | 19 ± 1 10^−3 min^−1 | 37.1 min |  |  | 
CC1(C)CC(N2CCC(O)(c3ccccc3)C(C(=O)c3ccccc3)C2)CC(C)(C)N1 (stereo not shown) [Compound 11] |  | 1100 ± 300 nM | 6.3 to 12.5 µg/mL (≈ 15 to 29.7 µM) |  |  | 1 to 5 µg/mL (≈ 2.38 to 11.9 µM) | no cytotoxicity was observed |  |  |  |  | 34 ± 1 10^−3 min^−1 | 20.2 min |  |  |  |  |  | 
OC(CCN1CCCCC1)c1ccc2c(c1)OCO2 (stereo not shown) [Compound 15] |  |  |  |  |  |  |  |  | 1000 ± 100 nM |  | 20000 ± 3000 nM |  |  |  |  |  | 103 ± 3% | 86 ± 2% | 125 µM to 250 µM and 33 µg/mL to 66 µg/mL
C=CCC(O)(CCN1CCOCC1)c1ccc(F)cc1 (stereo not shown) [Compound 16] |  |  |  |  |  |  |  |  | 6400 ± 600 nM |  |  |  |  |  |  |  | 99 ± 1% | -14 ± 3% | 
